According to patent US20240350643A1, “PROTEIN DEGRADATION AGENT” (SUZHOU KINTOR PHARMACEUTICALS, INC., priority 2021, published 2024):

Key:
[1] = biological target: T1, c-Myc protein (Homo sapiens, UniProt P01106); assay: Ability of compounds to degrade c-Myc protein in HL60 cells (ELISA); assay type: cell-based; settings: HL-60, 1 μM compound, 24 h, read-out: HL60 cells Protein degradation rate (1 μM)
T1 construct: endogenous in cells; host or cells: HL60 cells

[2] = tested on: HL60 cells; assay: Anti-proliferation ability of compounds on HL60 cells (CTG); assay type: cell-based, human; settings: Homo sapiens, HL-60, 72 h, 3 days, CellTiter-Glo, read-out: HL60 cells Proliferation inhibitory activity
How it was run: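 HL60 cells (20000/well) exposed to serially diluted compounds (0.1% DMSO vehicle control) for 3 days. Viability read by CellTiter-Glo luminescence; IC50 fitted from inhibition rates.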

T1 sequence (P01106 whole entry): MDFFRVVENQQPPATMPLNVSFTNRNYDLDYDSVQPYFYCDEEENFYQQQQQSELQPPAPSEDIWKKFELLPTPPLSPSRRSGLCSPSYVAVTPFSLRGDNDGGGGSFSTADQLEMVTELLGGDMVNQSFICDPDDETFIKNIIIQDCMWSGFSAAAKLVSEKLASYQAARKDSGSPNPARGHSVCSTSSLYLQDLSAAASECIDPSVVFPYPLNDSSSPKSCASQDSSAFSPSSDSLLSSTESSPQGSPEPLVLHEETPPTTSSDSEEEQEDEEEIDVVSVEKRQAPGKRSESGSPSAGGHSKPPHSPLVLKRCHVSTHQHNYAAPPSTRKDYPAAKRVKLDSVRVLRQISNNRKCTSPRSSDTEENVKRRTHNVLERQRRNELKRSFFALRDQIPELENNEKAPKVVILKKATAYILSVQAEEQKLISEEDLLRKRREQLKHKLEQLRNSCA

| SMILES | inhibition at 1 µM [1] [%] | IC50 [2] [nM] |
| --- | --- | --- |
| O=C(Cn1c2ccccc2c2cccnc21)NCc1ccc(CNC(=O)c2ccc3c(c2)C(=O)N(C2CCC(=O)NC2=O)C3=O)cc1F (centres unmarked) [A108] | 60 to 90 | 2.7 ± 1.8 |
| CN(CCc1cccc2ccccc12)Cc1ccc(CNC(=O)c2ccc3c(c2)C(=O)N(C2CCC(=O)NC2=O)C3=O)cc1F (centres unmarked) [A109] | 60 to 90 | 5.5 ± 4.2 |
| CN(CCn1c2ccccc2c2cccnc21)Cc1ccc(CNC(=O)c2ccc3c(c2)C(=O)N(C2CCC(=O)NC2=O)C3=O)cc1F (centres unmarked) [A110] | 60 to 90 | 4.4 |
| COc1cc(CNC(=O)Cc2cccc3ccccc23)ccc1CNC(=O)c1ccc2c(c1)C(=O)N(C1CCC(=O)NC1=O)C2=O (centres unmarked) [A111] | 60 to 90 | 57.6 ± 25.9 |
| COc1cc(CNC(=O)Cn2c3ccccc3c3cccnc32)ccc1CNC(=O)c1ccc2c(c1)C(=O)N(C1CCC(=O)NC1=O)C2=O (centres unmarked) [A112] | 60 to 90 | 3 ± 0.1 |
| COc1cc(CN(C)CCc2cccc3ccccc23)ccc1CNC(=O)c1ccc2c(c1)C(=O)N(C1CCC(=O)NC1=O)C2=O (centres unmarked) [A113] | 60 to 90 | 4.4 ± 3.2 |
| COc1cc(CN(C)CCn2c3ccccc3c3cccnc32)ccc1CNC(=O)c1ccc2c(c1)C(=O)N(C1CCC(=O)NC1=O)C2=O (centres unmarked) [A114] | 60 to 90 | 6.5 ± 0.3 |
| COc1cc(CNC(=O)c2ccc3c(c2)C(=O)N(C2CCC(=O)NC2=O)C3=O)ccc1CNC(=O)Cc1cccc2ccccc12 (centres unmarked) [A115] | 60 to 90 | 8.6 ± 1.8 |
| COc1cc(CNC(=O)c2ccc3c(c2)C(=O)N(C2CCC(=O)NC2=O)C3=O)ccc1CNC(=O)Cn1c2ccccc2c2cccnc21 (centres unmarked) [A116] | 60 to 90 | 5.5 ± 3.3 |
| O=C(Cc1cccc2ccccc12)NCc1ccc(CNC(=O)c2ccc3c(c2)C(=O)N(C2CCC(=O)NC2=O)C3=O)c(C(F)(F)F)c1 (centres unmarked) [A117] | 60 to 90 | 13.8 ± 4 |
| O=C(Cn1c2ccccc2c2cccnc21)NCc1ccc(CNC(=O)c2ccc3c(c2)C(=O)N(C2CCC(=O)NC2=O)C3=O)c(C(F)(F)F)c1 (centres unmarked) [A118] | 60 to 90 | 18.2 ± 11.4 |
| CN(CCc1cccc2ccccc12)Cc1ccc(CNC(=O)c2ccc3c(c2)C(=O)N(C2CCC(=O)NC2=O)C3=O)c(C(F)(F)F)c1 (centres unmarked) [A119] | 60 to 90 | 44.4 ± 0.3 |
| CN(CCn1c2ccccc2c2cccnc21)Cc1ccc(CNC(=O)c2ccc3c(c2)C(=O)N(C2CCC(=O)NC2=O)C3=O)c(C(F)(F)F)c1 (centres unmarked) [A120] | 60 to 90 | 17.8 ± 4.9 |
| O=C(Cc1cccc2ccccc12)NCc1ccc(CNC(=O)c2ccc3c(c2)C(=O)N(C2CCC(=O)NC2=O)C3=O)cc1C(F)(F)F (centres unmarked) [A121] | 60 to 90 | 6.3 ± 3 |
| O=C(Cn1c2ccccc2c2cccnc21)NCc1ccc(CNC(=O)c2ccc3c(c2)C(=O)N(C2CCC(=O)NC2=O)C3=O)cc1C(F)(F)F (centres unmarked) [A122] | 60 to 90 | 5.9 ± 3.9 |
| CN(CCn1c2ccccc2c2cccnc21)Cc1ccc(CNC(=O)c2ccc3c(c2)C(=O)N(C2CCC(=O)NC2=O)C3=O)cc1C(F)(F)F (centres unmarked) [A123] | 60 to 90 | 35.2 ± 9.3 |
| O=C(Cc1cccc2ccccc12)NCc1ccc(CNC(=O)c2ccc3c(c2)C(=O)N(C2CCC(=O)NC2=O)C3=O)nc1 (centres unmarked) [A124] | 10 to 30 | 1100 ± 295 |
| O=C(Cn1c2ccccc2c2cccnc21)NCc1ccc(CNC(=O)c2ccc3c(c2)C(=O)N(C2CCC(=O)NC2=O)C3=O)nc1 (centres unmarked) [A125] | 60 to 90 | 26.1 ± 2 |
| CN(CCc1cccc2ccccc12)Cc1ccc(CNC(=O)c2ccc3c(c2)C(=O)N(C2CCC(=O)NC2=O)C3=O)nc1 (centres unmarked) [A126] | 60 to 90 | 8.5 ± 0.4 |
| CN(CCn1c2ccccc2c2cccnc21)Cc1ccc(CNC(=O)c2ccc3c(c2)C(=O)N(C2CCC(=O)NC2=O)C3=O)nc1 (centres unmarked) [A127] | 60 to 90 | 3.6 ± 0.1 |
| O=C(Cc1cccc2ccccc12)NCc1ccc(CNC(=O)c2ccc3c(c2)C(=O)N(C2CCC(=O)NC2=O)C3=O)cn1 (centres unmarked) [A128] | 10 to 30 | 2140 ± 788 |
| O=C(Cn1c2ccccc2c2cccnc21)NCc1ccc(CNC(=O)c2ccc3c(c2)C(=O)N(C2CCC(=O)NC2=O)C3=O)cn1 (centres unmarked) [A129] | 60 to 90 | 36.1 ± 13.3 |
| CN(CCn1c2ccccc2c2cccnc21)Cc1ccc(CNC(=O)c2ccc3c(c2)C(=O)N(C2CCC(=O)NC2=O)C3=O)cn1 (centres unmarked) [A130] | 60 to 90 | 4.7 ± 2.3 |

| SMILES | inhibition at 1 µM [1] [%] | IC50 [2] [nM] |
| --- | --- | --- |
| O=C(Cn1c2ccccc2c2cccnc21)NCc1cnc(CNC(=O)c2ccc3c(c2)C(=O)N(C2CCC(=O)NC2=O)C3=O)nc1 (centres unmarked) [A131] | 60 to 90 | 112 ± 16.5 |
| O=C(Cn1c2ccccc2c2cccnc21)NCc1ncc(CNC(=O)c2ccc3c(c2)C(=O)N(C2CCC(=O)NC2=O)C3=O)cn1 (centres unmarked) [A132] | 10 to 30 | 4210 ± 659 |
| O=C(Cc1cccc2ccccc12)NCc1cnc(CNC(=O)c2ccc3c(c2)C(=O)N(C2CCC(=O)NC2=O)C3=O)s1 (centres unmarked) [A133] | 10 to 30 | 5020 ± 23 |
| O=C(Cn1c2ccccc2c2cccnc21)NCc1cnc(CNC(=O)c2ccc3c(c2)C(=O)N(C2CCC(=O)NC2=O)C3=O)s1 (centres unmarked) [A134] | 60 to 90 | 334 ± 83.5 |
| O=C(Cc1cccc2ccccc12)NCc1csc(CNC(=O)c2ccc3c(c2)C(=O)N(C2CCC(=O)NC2=O)C3=O)n1 (centres unmarked) [A135] | 30 to 60 | 1710 ± 120 |
| O=C(Cn1c2ccccc2c2cccnc21)NCc1csc(CNC(=O)c2ccc3c(c2)C(=O)N(C2CCC(=O)NC2=O)C3=O)n1 (centres unmarked) [A136] | 60 to 90 | 211 ± 45.9 |
| O=C(Cc1cccc2ccccc12)NCc1ccc(C2(NC(=O)c3ccc4c(c3)C(=O)N(C3CCC(=O)NC3=O)C4=O)CC2)cc1 (centres unmarked) [A137] | 60 to 90 | 239 ± 35 |
| O=C(Cn1c2ccccc2c2cccnc21)NCc1ccc(C2(NC(=O)c3ccc4c(c3)C(=O)N(C3CCC(=O)NC3=O)C4=O)CC2)cc1 (centres unmarked) [A138] | 60 to 90 | 12.4 ± 4.4 |
| CN(CCc1cccc2ccccc12)Cc1ccc(C2(NC(=O)c3ccc4c(c3)C(=O)N(C3CCC(=O)NC3=O)C4=O)CC2)cc1 (centres unmarked) [A139] | 60 to 90 | 22.5 ± 14.3 |
| CN(CCn1c2ccccc2c2cccnc21)Cc1ccc(C2(NC(=O)c3ccc4c(c3)C(=O)N(C3CCC(=O)NC3=O)C4=O)CC2)cc1 (centres unmarked) [A140] | 60 to 90 | 11 ± 1.7 |
| O=C1CCC(N2C(=O)c3ccc(C(=O)NCc4ccc(C5(NC(=O)Cc6cccc7ccccc67)CC5)cc4)cc3C2=O)C(=O)N1 (centres unmarked) [A141] | 60 to 90 | 6.5 ± 0.3 |
| O=C1CCC(N2C(=O)c3ccc(C(=O)NCc4ccc(C5(NC(=O)Cn6c7ccccc7c7cccnc76)CC5)cc4)cc3C2=O)C(=O)N1 (centres unmarked) [A142] | 60 to 90 | 6.1 ± 0.9 |
| CN(CCc1cccc2ccccc12)C1(c2ccc(CNC(=O)c3ccc4c(c3)C(=O)N(C3CCC(=O)NC3=O)C4=O)cc2)CC1 (centres unmarked) [A143] | 60 to 90 | 22.9 ± 3 |
| CN(CCn1c2ccccc2c2cccnc21)C1(c2ccc(CNC(=O)c3ccc4c(c3)C(=O)N(C3CCC(=O)NC3=O)C4=O)cc2)CC1 (centres unmarked) [A144] | 60 to 90 | 18.4 ± 7.4 |
| CC(C)(NC(=O)c1ccc2c(c1)C(=O)N(C1CCC(=O)NC1=O)C2=O)c1ccc(CNC(=O)Cc2cccc3ccccc23)cc1 (centres unmarked) [A145] | 60 to 90 | 117.7 ± 1.1 |
| CC(C)(NC(=O)c1ccc2c(c1)C(=O)N(C1CCC(=O)NC1=O)C2=O)c1ccc(CNC(=O)Cn2c3ccccc3c3cccnc32)cc1 (centres unmarked) [A146] | 60 to 90 | 14.7 ± 4 |
| CN(CCc1cccc2ccccc12)Cc1ccc(C(C)(C)NC(=O)c2ccc3c(c2)C(=O)N(C2CCC(=O)NC2=O)C3=O)cc1 (centres unmarked) [A147] | 60 to 90 | 16.7 ± 9.5 |
| CN(CCn1c2ccccc2c2cccnc21)Cc1ccc(C(C)(C)NC(=O)c2ccc3c(c2)C(=O)N(C2CCC(=O)NC2=O)C3=O)cc1 (centres unmarked) [A148] | 60 to 90 | 12 ± 8.1 |
| CC(C)(NC(=O)Cc1cccc2ccccc12)c1ccc(CNC(=O)c2ccc3c(c2)C(=O)N(C2CCC(=O)NC2=O)C3=O)cc1 (centres unmarked) [A149] | 60 to 90 | 7.6 ± 3 |
| CC(C)(NC(=O)Cn1c2ccccc2c2cccnc21)c1ccc(CNC(=O)c2ccc3c(c2)C(=O)N(C2CCC(=O)NC2=O)C3=O)cc1 (centres unmarked) [A150] | 60 to 90 | 7.2 ± 1 |
| CN(CCn1c2ccccc2c2cccnc21)C(C)(C)c1ccc(CNC(=O)c2ccc3c(c2)C(=O)N(C2CCC(=O)NC2=O)C3=O)cc1 (centres unmarked) [A151] | 60 to 90 | 11.3 ± 4.7 |
| O=C(Cc1cccc2ccccc12)NCc1ccc(CNC(=O)c2ccc3c(c2)CN(C2CCC(=O)NC2=O)C3=O)cc1 (centres unmarked) [A152] | 60 to 90 | 0.6 ± 0.3 |
| O=C(Cn1c2ccccc2c2cccnc21)NCc1ccc(CNC(=O)c2ccc3c(c2)CN(C2CCC(=O)NC2=O)C3=O)cc1 (centres unmarked) [A153] | 60 to 90 | 0.5 ± 0.3 |
